PMC12223475, “Two Key Ferredoxins for Nitrogen Fixation Have Different Specificities and Biophysical Properties” (Chemistry (Weinheim an Der Bergstrasse, Germany), 2025)

Target: T1, FdC (Rhodobacter capsulatus, UniProt D5ARY7)
T1 construct: gene fdxC; full length, N-terminal Met replaced by Strep-tag (MAWSHPQFEK), tag kept; E. coli BL21-AI; monomer
Experiment: X-ray crystallography; UV-Vis; EPR
Assay type: binding
Conditions: 1.7 Å; anaerobic crystallisation, pH 8.0; ligands C38, C43, C46, C81

T1 sequence (D5ARY7 2-95): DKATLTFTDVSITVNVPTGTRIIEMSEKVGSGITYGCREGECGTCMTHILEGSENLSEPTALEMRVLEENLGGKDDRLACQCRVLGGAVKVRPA

[S]1[Fe][S][Fe]1 [[Fe2S2]-cluster]
X-ray crystallography; UV-Vis; EPR: The globular and monomeric FdC coordinates a [Fe2S2]‐cluster
